The supplement of paper PMC11061612

Assays:
[1] = test system: HuP-T4 (Pancreatic Carcinoma); assay: Bliss excess, mean over the matrix (fraction); higher = more synergy
Procedure, shortened: (§1)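 Cell lines grown in DMEM/F12 or RPMI with 10% FBS were plated in 1536-well plates and held 24 hours at 37°C, 5% CO2 before 72 hours of exposure to two-drug dose matrices, with DMSO typically at 0.2%. CellTiter-Glo 2.0 luminescence gave viability, which was converted to inhibition. Vehicle wells were set to 0 and blank wells to 1. Combination Emax is the second-highest inhibition in the matrix, and Bliss excess is the observed combination effect minus the expected EA + EB − EA·EB, where EA and EB are the single-agent effects.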

[2] = test system: MFE-296 (Endometrial Carcinoma); assay: as above
Procedure, shortened: as §1

[3] = test system: KYSE-520 (Esophageal Squamous Cell Carcinoma); assay: as above
Procedure, shortened: as §1

[4] = test system: Daoy (Other Solid Carcinomas); assay: as above
Procedure, shortened: as §1

[5] = test system: COLO-205 (Colorectal Carcinoma); assay: as above
Procedure, shortened: as §1

[6] = test system: EC-GI-10 (Esophageal Squamous Cell Carcinoma); assay: as above
Procedure, shortened: as §1

[7] = test system: B-CPAP (Thyroid Gland Carcinoma); assay: as above
Procedure, shortened: as §1

[8] = test system: HCC1806 (Breast Carcinoma); assay: as above
Procedure, shortened: as §1

[9] = test system: MDA-MB-361 (Breast Carcinoma); assay: as above
Procedure, shortened: as §1

[10] = test system: LNCaP-Clone-FGC (Prostate Carcinoma); assay: as above
Procedure, shortened: as §1

AGS (Gastric Carcinoma) [11] = assay: as above
Procedure, shortened: as §1

[12] = test system: SK-ES-1 (Ewing's Sarcoma); assay: as above
Procedure, shortened: as §1

[13] = test system: SNU-5 (Gastric Carcinoma); assay: as above
Procedure, shortened: as §1

ES4 (Ewing's Sarcoma) [14] = assay: as above
Procedure, shortened: as §1

[15] = test system: KP-1N (Pancreatic Carcinoma); assay: as above
Procedure, shortened: as §1

[16] = test system: RC-K8 (B-Cell Non-Hodgkin's Lymphoma); assay: as above
Procedure, shortened: as §1

[17] = test system: DEL (T-Cell Non-Hodgkin's Lymphoma); assay: as above
Procedure, shortened: as §1

NOS-1 (Osteosarcoma) [18] = assay: as above
Procedure, shortened: as §1

[19] = test system: TCCSUP (Bladder Carcinoma); assay: as above
Procedure, shortened: as §1

[20] = test system: OVCA420 (Ovarian Carcinoma); assay: as above
Procedure, shortened: as §1

42-MG-BA (Glioblastoma) [21] = assay: as above
Procedure, shortened: as §1

[22] = test system: LU-135 (Small Cell Lung Carcinoma); assay: as above
Procedure, shortened: as §1

[23] = test system: HuP-T4 (Pancreatic Carcinoma); assay: combination Emax (second highest fraction inhibited in the dose matrix, 72 h); higher = more inhibition; extreme values may be limits of the assay
Procedure, shortened: as §1

[24] = test system: MFE-296 (Endometrial Carcinoma); assay: as above
Procedure, shortened: as §1

[25] = test system: KYSE-520 (Esophageal Squamous Cell Carcinoma); assay: as above
Procedure, shortened: as §1

[26] = test system: Daoy (Other Solid Carcinomas); assay: as above
Procedure, shortened: as §1

[27] = test system: COLO-205 (Colorectal Carcinoma); assay: as above
Procedure, shortened: as §1

[28] = test system: EC-GI-10 (Esophageal Squamous Cell Carcinoma); assay: as above
Procedure, shortened: as §1

[29] = test system: B-CPAP (Thyroid Gland Carcinoma); assay: as above
Procedure, shortened: as §1

[30] = test system: HCC1806 (Breast Carcinoma); assay: as above
Procedure, shortened: as §1

[31] = test system: MDA-MB-361 (Breast Carcinoma); assay: as above
Procedure, shortened: as §1

[32] = test system: LNCaP-Clone-FGC (Prostate Carcinoma); assay: as above
Procedure, shortened: as §1

AGS (Gastric Carcinoma) [33] = assay: as above
Procedure, shortened: as §1

[34] = test system: SK-ES-1 (Ewing's Sarcoma); assay: as above
Procedure, shortened: as §1

[35] = test system: SNU-5 (Gastric Carcinoma); assay: as above
Procedure, shortened: as §1

ES4 (Ewing's Sarcoma) [36] = assay: as above
Procedure, shortened: as §1

[37] = test system: KP-1N (Pancreatic Carcinoma); assay: as above
Procedure, shortened: as §1

[38] = test system: RC-K8 (B-Cell Non-Hodgkin's Lymphoma); assay: as above
Procedure, shortened: as §1

[39] = test system: DEL (T-Cell Non-Hodgkin's Lymphoma); assay: as above
Procedure, shortened: as §1

NOS-1 (Osteosarcoma) [40] = assay: as above
Procedure, shortened: as §1

[41] = test system: TCCSUP (Bladder Carcinoma); assay: as above
Procedure, shortened: as §1

[42] = test system: OVCA420 (Ovarian Carcinoma); assay: as above
Procedure, shortened: as §1

42-MG-BA (Glioblastoma) [43] = assay: as above
Procedure, shortened: as §1

[44] = test system: LU-135 (Small Cell Lung Carcinoma); assay: as above
Procedure, shortened: as §1
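Wherever Bliss excess, mean over the matrix is given: after 72 h of two-drug dosing.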

SMILES: CC(=O)c1c(C)c2cnc(Nc3ccc(N4CCNCC4)cn3)nc2n(C2CCCC2)c1=O [Palbociclib] + CN(CC[C@H](CSC1=CC=CC=C1)NC2=C(C=C(C=C2)S(=O)(=O)NC(=O)C3=CC=C(C=C3)N4CCC(CC4)[C@H](C5=CC=CC=C5C6=CC=C(C=C6)Cl)O)S(=O)(=O)C(F)(F)F)CCO [AZD4320] (first compound max 10 µM, 7x7, partner max 1 µM)
- Bliss excess [1]: -0.0026
- Bliss excess [2]: -0.0227
- Bliss excess [3]: -0.0557
- Bliss excess [4]: 0.0118
- Bliss excess [5]: -0.0497
- Bliss excess [6]: -0.0715
- Bliss excess [7]: -0.0241
- Bliss excess [8]: -0.0398
- Bliss excess [9]: -0.0078
- Bliss excess [10]: -0.0902
- Bliss excess (AGS (Gastric Carcinoma) [11]): -0.008
- Bliss excess [12]: 0.0334
- Bliss excess [13]: -0.0446
- Bliss excess (ES4 (Ewing's Sarcoma) [14]): -0.113
- Bliss excess [15]: -0.0305
- Bliss excess [16]: 0.0351
- Bliss excess [17]: -0.0135
- Bliss excess (NOS-1 (Osteosarcoma) [18]): 0.0414
- Bliss excess [19]: -0.0607
- Bliss excess [20]: -0.0591
- Bliss excess (42-MG-BA (Glioblastoma) [21]): -0.061
- Bliss excess [22]: 0.0316
- combination Emax [23]: 0.208
- combination Emax [24]: 0.293
- combination Emax [25]: 0.477
- combination Emax [26]: 0.368
- combination Emax [27]: 0.868
- combination Emax [28]: 0.493
- combination Emax [29]: 0.59
- combination Emax [30]: 0.442
- combination Emax [31]: 0.185
- combination Emax [32]: 0.534
- combination Emax (AGS (Gastric Carcinoma) [33]): 0.823
- combination Emax [34]: 0.956
- combination Emax [35]: 0.334
- combination Emax (ES4 (Ewing's Sarcoma) [36]): 0.485
- combination Emax [37]: 0.27
- combination Emax [38]: 0.838
- combination Emax [39]: 0.916
- combination Emax (NOS-1 (Osteosarcoma) [40]): 0.952
- combination Emax [41]: 0.364
- combination Emax [42]: 0.21
- combination Emax (42-MG-BA (Glioblastoma) [43]): 0.511
- combination Emax [44]: 1
